Measurements reported in US10633707B2, “Markers for detecting microsatellite instability in cancer and determining synthetic lethality with inhibition of the DNA base excision repair pathway” (VIB VZW, priority 2012, dated 2020).
Entries after “also recorded” stand apart in the source; their conditions may differ.

Assays:
[1] = test system: MMR-deficient primary tumor cultures and cancer cell lines; assay: RAD51 immunostaining (RAD51 foci formation) after olaparib, MMR-deficient cells; type: cell-based, human; settings: 10 μM olaparib, 24 hours, average of 8 MMR-deficient cultures
Protocol: (§1) To investigate whether the DSB repair by HR pathway is functionally inactivated in MMR-deficient tumors, it was assessed the DSB repair activity in eight MMR-deficient and four MMR-proficient primary tumor cultures and cancer cell lines. The MMR status of these cells was analyzed using the 56-marker panel and confirmed by the Bethesda Panel.
(§2) Nine primary endometrial and ovarian tumor cell cultures were established from patients undergoing surgery at the Division of Gynecologic Oncology, University Hospitals Gasthuisberg, Leuven (Belgium). Only after providing informed consent, patients were included in the study. The following protocol was used to generate primary tumor cultures. First, tumor samples were placed into sterile RPMI medium supplemented with Penicillin/Streptomycin (1000 U/ml) and Fungizone (0.5 μg/ml) (all from Life Technologies) for transport from the surgery room to the cell culture laboratory. […]
(§3) Primary tumor cell cultures were grown in RPMI Medium 1640 (Gibco) supplemented with 20% fetal bovine serum, 2 mM L-Glutamine, 100 U/ml of penicillin, 100 μg/ml of streptomycin, 1 μg/ml of fungizone and 10 μg/ml of gentamicin up to 20 passages. […] They were also routinely monitored for Mycoplasma contamination and no Mycoplasma growth has been detected. […]

[2] = test system: MMR-proficient primary tumor cultures and cancer cell lines; assay: RAD51 immunostaining (RAD51 foci formation) after olaparib, MMR-proficient cells; type: cell-based, human; settings: 10 μM olaparib, 24 hours, average of 4 MMR-proficient cultures
Protocol: as §1, §2, §3

[3] = test system: MMR-deficient and MMR-proficient tumor cells; assay: γH2AX immunostaining (unrepaired DNA damage) after olaparib; type: cell-based, human; settings: all cells regardless of MMR status
Protocol: Primary tumor cultures and immunofluorescence: Nine primary endometrial and ovarian tumor cell cultures were established from tumors of the patients undergoing surgery. Primary tumor cell cultures were grown in RPMI1640 medium (GIBCO) supplemented with 20% FBS, 2 mM L-Glutamine, 100 U/ml penicillin, 100 μg/ml streptomycin, 1 μg/ml fungizone and 10 μg/ml gentamicin up to 20 passages. 25,000 cells/well were seeded on eight-well slides (Nunc) in 400 μl medium and grown for 24 hours. Following exposure to 0 or 10 μM olaparib, slides were rinsed in PBS, fixed in paraformaldehyde at 37° C., permeabilized with 0.1% Triton X-100 and blocked with BSA. […] The percentage of foci positive cells (>5 foci per nucleus) was determined on a Zeiss LSM 510 inverted confocal microscope using Plan-Neofluar 40×/1.3 oil immersion objective. For each experiment, at least 100 nuclei were analyzed.
The degree of unrepaired DNA damage upon olaparib treatment was measured with γH2AX immunofluorescence. […]
γH2AX and RAD51 foci were visualized with Zeiss LSM 510 inverted confocal microscope using Plan-Neofluar 40x/1.3 oil immersion objective and excitation wavelengths of 488 and 750 nm (Chameleon coherent two-photon laser). […] Nuclei with >5 foci were scored positive, and at least 100 nuclei were counted per culture and per condition.

[4] = test system: MMR-deficient cells; assay: Cell proliferation with xCELLigence RTCA system, MMR-deficient cells; type: cell-based, human; settings: for decrease in proliferation versus untreated cells: average of 8 MMR-deficient cultures, 48 hours
Protocol: (§4) As MMR-deficient tumors are characterized by reduced activity of the DSB repair by HR pathway, it was hypothesized that these tumors, similar to BRCA1-deficient tumors (Farmer et al., 2005), can be selectively targeted by PARP inhibition. All eight MMR-deficient and four MMR-proficient cultures were dose-dependently (1, 3 and 10 μM) exposed to olaparib and effects on proliferation were assessed.
(§5) Real-Time Cell Analyzer (RTCA) xCELLigence System (Roche Applied Science, Mannheim, Germany) was used to dynamically monitor cell proliferation rates. The system measures electrical impedance across microelectrodes on the bottom of tissue culture E-plates. The impedance measurement provides quantitative information about cell number, viability, morphology and adhesion. 5,000 cells/well were seeded on E-plate 16 (Roche) in 200 μl medium. 24 hours post-seeding, cells were treated with olaparib to the desired final concentration (1, 3, 10 μM olaparib). The final DMSO percent in all wells was 0.1%. Each treatment condition was measured in triplicate. Dynamic cell index values were monitored in five-minute intervals for 48 hours after treatments. Cell index values were normalized to the vehicle-treated control for each cell.
Cell Proliferation: Real-Time Cell Analyzer (RTCA) xCELLigence System (Roche) was used to dynamically monitor cell proliferation rates. 5,000 cells/well were seeded on E-plate 16 (Roche) in 200 μl medium. Olaparib (AZD-2281, JS Research Chemicals Trading) was dissolved in DMSO. 24 hours post-seeding, cells were treated with olaparib ([…]). Each condition was measured in triplicate and all experiments were done in duplicate at different time points. Dynamic cell index values were monitored for 48 hours after treatment.

[5] = test system: MMR-proficient cells; assay: Cell proliferation with xCELLigence RTCA system, MMR-proficient cells; type: cell-based, human; settings: 1, 3 and 10 μM olaparib, 48 hours
Protocol: as §4
as §5, with “24 hours post-seeding, cells were treated with olaparib to the desired final concentration (1, 3, 10 μM olaparib). The final DMSO percent in all wells was 0.1%.” left out, “Cell index values were normalized to the vehicle-treated control for each cell.” left out
Cell Proliferation: Real-Time Cell Analyzer (RTCA) xCELLigence System (Roche) was used to dynamically monitor cell proliferation rates. […] Each condition was measured in triplicate and all experiments were done in duplicate at different time points. Dynamic cell index values were monitored for 48 hours after treatment.

[6] = test system: BRCA1-deficient cells; settings: 3 μM olaparib; cited from earlier work
[7] = test system: BRCA2-deficient cells; settings: 10 μM olaparib; cited from earlier work

O=C(c1cc(Cc2n[nH]c(=O)c3ccccc23)ccc1F)N1CCN(C(=O)C2CC2)CC1 [olaparib]
cells showing RAD51 foci formation (>5 foci per nucleus) [1]: 19±3%
cells showing RAD51 foci formation (>5 foci per nucleus) [2]: 37±4%
increase in number of γH2AX foci compared to baseline ([3]; 10 μM olaparib): 4-6 fold
number of γH2AX foci (in words) ([3]; olaparib): drastically increased
decrease in proliferation versus untreated cells ([4]; 1 μM olaparib): 15%
decrease in proliferation versus untreated cells ([4]; 3 μM olaparib): 20%
decrease in proliferation versus untreated cells ([4]; 10 μM olaparib): 42%
effect on proliferation (in words) ([4]; 1, 3 and 10 μM olaparib, MMR-deficient cells): dose-dependent decrease in proliferation
effect on proliferation (in words) [5]: no effect; also recorded: did not respond to olaparib
decrease in viability [6]: 78%
decrease in viability [7]: 91%
